# Experimental data from PMC6539310, “Investigation on the Enzymatic Profile of Mulberry Alkaloids by Enzymatic Study and Molecular Docking” (Molecules, 2019).
# Read-outs that look alike come from different tables or passages of the source.
# What was measured:
# sucrase [1] = target: T1, sucrase (Rattus norvegicus, UniProt P23739); test: α-glucosidase inhibition assay, sucrase (sucrose substrate, glucose oxidase readout); type: biochemical, Wistar rats; details: for Sucrase Inhibition, Inhibition Ratio (%): at 4 × 10^−5 M
# T1 construct: Sucrase and maltase were obtained from the intestinal brush border of Wistar rats; from tissue; host or cells: intestinal brush border of Wistar rats
# T1 sequence (P23739 whole entry): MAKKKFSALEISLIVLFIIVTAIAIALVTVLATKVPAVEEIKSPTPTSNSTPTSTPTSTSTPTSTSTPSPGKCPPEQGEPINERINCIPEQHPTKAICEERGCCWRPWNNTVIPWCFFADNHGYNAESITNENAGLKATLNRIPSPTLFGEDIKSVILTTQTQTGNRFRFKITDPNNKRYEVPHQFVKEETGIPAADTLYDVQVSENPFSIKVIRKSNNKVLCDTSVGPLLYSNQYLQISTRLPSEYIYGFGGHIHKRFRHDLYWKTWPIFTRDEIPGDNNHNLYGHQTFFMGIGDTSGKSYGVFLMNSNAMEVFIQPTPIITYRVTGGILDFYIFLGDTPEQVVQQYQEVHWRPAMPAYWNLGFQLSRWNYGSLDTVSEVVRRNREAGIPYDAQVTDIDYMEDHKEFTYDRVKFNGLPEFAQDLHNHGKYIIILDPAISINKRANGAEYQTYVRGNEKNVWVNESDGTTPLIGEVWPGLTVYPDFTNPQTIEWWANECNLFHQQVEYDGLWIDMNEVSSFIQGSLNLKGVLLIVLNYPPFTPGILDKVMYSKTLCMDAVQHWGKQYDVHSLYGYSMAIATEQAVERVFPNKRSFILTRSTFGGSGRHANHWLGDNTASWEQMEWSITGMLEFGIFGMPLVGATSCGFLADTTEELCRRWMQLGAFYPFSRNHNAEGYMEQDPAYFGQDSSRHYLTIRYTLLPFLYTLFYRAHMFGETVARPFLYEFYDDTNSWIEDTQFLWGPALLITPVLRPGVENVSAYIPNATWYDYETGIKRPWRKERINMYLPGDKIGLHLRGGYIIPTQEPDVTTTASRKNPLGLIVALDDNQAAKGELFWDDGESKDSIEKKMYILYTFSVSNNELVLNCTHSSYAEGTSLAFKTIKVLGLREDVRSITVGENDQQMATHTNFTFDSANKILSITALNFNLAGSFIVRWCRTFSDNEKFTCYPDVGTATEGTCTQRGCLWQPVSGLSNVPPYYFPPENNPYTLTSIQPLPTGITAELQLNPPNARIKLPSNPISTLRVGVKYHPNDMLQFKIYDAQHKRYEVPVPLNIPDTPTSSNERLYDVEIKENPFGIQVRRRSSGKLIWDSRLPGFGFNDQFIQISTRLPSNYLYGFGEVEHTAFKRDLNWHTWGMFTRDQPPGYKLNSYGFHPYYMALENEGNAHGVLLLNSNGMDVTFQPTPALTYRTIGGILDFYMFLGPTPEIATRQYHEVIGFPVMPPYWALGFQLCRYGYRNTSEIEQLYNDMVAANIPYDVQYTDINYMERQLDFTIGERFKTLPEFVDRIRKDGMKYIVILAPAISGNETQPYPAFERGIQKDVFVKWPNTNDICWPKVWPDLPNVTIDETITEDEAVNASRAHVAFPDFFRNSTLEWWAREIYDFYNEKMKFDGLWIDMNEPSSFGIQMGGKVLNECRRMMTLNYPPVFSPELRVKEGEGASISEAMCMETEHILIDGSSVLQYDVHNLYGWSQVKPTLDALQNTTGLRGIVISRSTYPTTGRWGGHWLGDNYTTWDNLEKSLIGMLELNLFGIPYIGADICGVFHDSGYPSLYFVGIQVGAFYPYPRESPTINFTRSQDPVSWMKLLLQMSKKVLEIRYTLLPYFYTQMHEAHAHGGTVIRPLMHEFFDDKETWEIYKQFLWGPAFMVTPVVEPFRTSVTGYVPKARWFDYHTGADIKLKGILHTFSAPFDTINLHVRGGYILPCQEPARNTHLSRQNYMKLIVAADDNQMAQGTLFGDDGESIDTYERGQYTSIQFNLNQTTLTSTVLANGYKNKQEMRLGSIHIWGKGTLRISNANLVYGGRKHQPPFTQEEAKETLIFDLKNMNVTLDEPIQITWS
# Protocol: (§1) Sucrase and maltase were obtained from the intestinal brush border of Wistar rats. […] Each stock solution was prepared with distilled water. All other solvents and chemicals were of analytical purity.
# The modified inhibitory screening system was used to determine inhibitory activity on α-glucosidase. Selected starch, sucrose, and maltose were used as α-glucosidase substrates instead of p-nitrophenyl glucopyranoside. Maltase and sucrase were pre-incubated with different concentrations of compound (0.004–400 μmol/L) at 37 °C for 8 min, and the substrate was then added into initiate the reaction. After incubation at 37 °C for 40 min, 150 μL of glucose oxidase solution was added to each mixture and incubated at 37 °C for 40 min. […] Inhibitory percentage values were calculated using the formula: %Inhibition = (B − C)/B × 100, where B is the formation of glucose under the enzyme without compound and C is the formation of glucose with compound.
# α-amylase = α-amylase inhibition assay (starch-iodine); type: biochemical; details: for α-Amylase Inhibition, Inhibition Ratio (%): at 1 × 10^−5 M
# Protocol: as §1
# α-amylase was pre-incubated with different compound concentrations (0.016–100 μmol/L) at 37 °C for 15 min, and the reaction was initiated with the addition of 100 µL of 0.04% starch solution. After incubation at 37 °C for 10 min, 0.1 M iodine reagent was added. Absorption at 660 nm was measured to determine the remaining amount of starch in the reaction and thus calculate the inhibitory effect in the different samples.
# maltase = maltase (Rattus norvegicus, UniProt D3ZTX4); test: Enzyme-kinetic analysis on maltase (Lineweaver–Burk plots); type: biochemical, Wistar rats; details: maltose substrate
# Protocol: as §1
# (§2) Lineweaver–Burk double reciprocal plots (LB plots) were then obtained to calculate the kinetic constants and evaluate inhibitory type, the equation is as follows: 1/V = (Km + [S])/(Vmax[S]) = (Km/Vmax) * (1/[S]) + (1/Vmax),
# (§3) In this equation, [S] denotes the concentration of substrate, V represents the enzyme reaction velocity and Km is the Michaelis–Menten constant.
# sucrase [2] = target: T1, sucrase; test: Enzyme-kinetic analysis on sucrase (Lineweaver–Burk plots); type: biochemical, Wistar rats; details: for Ki: from LB plots; for Inhibition Type: sucrose substrate
# Protocol: as §1, §2, §3
# [3] = read-out: Sucrase Inhibition IC50
compound,measurement,setting,value
"OC[C@H]1NC[C@H](O)[C@@H](O)[C@@H]1O [1-DNJ, 1-deoxynojirimycin]",Selectivity sucrase over amylase (IC50 amylase/IC50 disaccharidases),sucrase [1]; IC50 amylase / IC50 sucrase,1282 times
same,"Sucrase Inhibition, Inhibition Ratio (%)",sucrase [1],100%
same,IC50,"sucrase [1]; converted from μmol/L by mol wt, read-out: Sucrase IC50 after conversion according to the molecular weight (converted)",0.0613 µM
same,IC50,sucrase [1]; [3],0.078 µM
same,IC50,α-amylase,> 100 µM
same,Inhibitory activity on α-amylase (in words),α-amylase,no obvious inhibitory activity
same,"α-Amylase Inhibition, Inhibition Ratio (%)",α-amylase,0%
same,Inhibition Type,maltase,Competitive inhibition
same,Ki,sucrase [2],0.0137 µM
same,Inhibition Type,sucrase [2],Competitive inhibition
"C[C@H]1O[C@H](O[C@H]2[C@H](O)[C@@H](O)[C@@H](O[C@H]3[C@H](O)[C@@H](O)C(O)O[C@@H]3CO)O[C@@H]2CO)[C@H](O)[C@@H](O)[C@@H]1N[C@H]1C=C(CO)[C@@H](O)[C@H](O)[C@H]1O (stereo partly drawn) [Acarbose, acarbose, reference compound]",Inhibitory activity on α-amylase (in words),α-amylase,strongly inhibited
same,Inhibition Type,maltase,Competitive inhibition
same,Inhibition Type,sucrase [2],Competitive inhibition
"OC[C@H]1NC[C@@H](O)[C@@H]1O [DAB, 1,4-dideoxy-1,4-imino-D-arabinitol]",IC50,α-amylase,> 100 µM
same,Inhibitory activity on α-amylase (in words),α-amylase,no obvious inhibitory activity
same,Inhibition Type,maltase,Competitive inhibition
"OC[C@H]1NCC[C@@H](O)[C@@H]1O [FA, fagomine]","Sucrase Inhibition, Inhibition Ratio (%)",sucrase [1],84.6%
same,IC50,sucrase [1]; [3],13.5 µM
same,IC50,α-amylase,> 100 µM
same,Inhibitory activity on α-amylase (in words),α-amylase,no obvious inhibitory activity
same,"α-Amylase Inhibition, Inhibition Ratio (%)",α-amylase,0%
same,Inhibition Type,maltase,Competitive inhibition
same,Ki,sucrase [2],3.97 µM
same,Inhibition Type,sucrase [2],Competitive inhibition
